Test results as given in US20260167656A1, “PHOSPHORAMIDATE COMPOUNDS AND USES THEREOF” (ALLORION THERAPEUTICS INC, priority 2022, published 2026).

How the values were obtained:
[1] = system: non-small cell lung cancer cell line H460; assay: H460 proliferation assay in the presence of 3 uM ASP9521 (AKR1C3 specific inhibitor); type: cell-based, human; details: H460 cells, CellTiter-Glo, 72 hours, in the presence of 3 uM ASP9521 added 4 hours prior to compounds; read-out: CTG H460: Avg IC50 (nM) [Assay Condition: ASP9521]
Method: (§1) Specifically, exponentially growing cells were seeded at density of 3×10^3 cells per well in 96-well plate and incubated at 37° C. in 5% CO2, 95% air and 100% relative humidity for 24 hours before adding compounds. Compounds were solubilized in 100% DMSO at 10 mM. Compounds were added to the plate using Tecan D300e® digital Dispenser. After drug addition, the plates were incubated for an additional 72 hours at 37° C. in 5% CO2, 95% air and 100% relative humidity. At the end of the incubation, cell viability was quantified with CellTiter-Glo® assay.
To further confirm that compounds were activated by human AKR1C3, H460 proliferation assay were also performed in the presence of 3 uM […], an AKR1C3 specific inhibitor. ASP9521 were added to the plates 4 hours prior to the addition of compounds.

[2] = system: non-small cell lung cancer cell line H460; assay: In vitro human cancer cell line cytotoxicity (proliferation) assay in H460, CellTiter-Glo, 72 hours; type: cell-based; details: DMSO condition (no AKR1C3 inhibitor), read-out: CTG H460: Avg IC50 (nM) [Assay Condition: DMSO]
Method: Biological Example 1. In Vitro Human Cancer Cell Line Cytotoxicity Assay
IC50 values in nanomolar reported here were derived from in vitro proliferation assay data in non-small cell lung cancer cell line H460.
as §1

[3] = Homo sapiens, NCI-H460, 72 h, H460 cells
[4] = Homo sapiens, NCI-H460, H460 cells

Row | Structure (SMILES) | IC50 [1] [nM] | IC50 [2, 3] [nM] | IC50 ([2]; H460 cells) [nM] | IC50 [2, 4] [nM]
1 | O=C(NC1CC1)c1cccc(Oc2c([N+](=O)[O-])ccc3c2CCC3OP(=O)(N2CC2)N2CC2)c1 (stereo not shown) [Example 234] | 865 | < 10 |  | 
2 | Cc1coc(-c2cccc(Oc3c([N+](=O)[O-])ccc4c3CC[C@@H]4OP(=O)(N3CC3)N3CC3)c2)n1 [Example 361] | 3910 | 10 to 50 |  | 
3 | CC(OP(=O)(N1C[C@@H]1C)N1C[C@@H]1C)c1ccc([N+](=O)[O-])c(Oc2ccc(-c3ccc(F)cn3)c(F)c2)c1 (stereo partly shown) [Example 223] | 2590 |  | < 10 | 
4 | Cn1c(=O)n(C)c2cc(Oc3c([N+](=O)[O-])ccc4c3CCC4OP(=O)(N3CC3)N3CC3)ccc21 (stereo not shown) [Example 94] | 1450 |  | 10 to 50 | 
5 | O=[N+]([O-])c1ccc2c(c1Oc1ccc(F)c(OC3CCCC3)c1)CCC2OP(=O)(N1CC1)N1CC1 (stereo not shown) [Example 476] | 1090 |  | < 10 | 
6 | O=[N+]([O-])c1ccc2c(c1Oc1ccc(F)c(-n3cc(F)cn3)c1)CC[C@H]2OP(=O)(N1CC1)N1CC1 [Example 420] | 675 | < 10 |  | 
7 | CC(C)Oc1cccc(Oc2c([N+](=O)[O-])ccc3c2CC[C@@H]3OP(=O)(N2CC2)N2CC2)c1 [Example 452] | 2240 |  | < 10 | 
8 | C[C@H](OP(=O)(N1CC1)N1CC1)c1cc2cc(Oc3cccc(C(=O)N4CCOCC4)c3)c([N+](=O)[O-])cc2o1 [Example 557] | 7310 |  | 10 to 50 | 
9 | Cn1ccc2c(F)cc(Oc3c([N+](=O)[O-])ccc4c3CC[C@@H]4OP(=O)(N3CC3)N3CC3)cc21 (single isomer, unassigned) [Example 377] | 1330 | < 10 |  | 
10 | O=[N+]([O-])c1ccc2c(c1Oc1cccc(OC(F)F)c1)CC[C@@H]2OP(=O)(N1CC1)N1CC1 [Example 457] | 768 |  | < 10 | 
11 | O=[N+]([O-])c1ccc2c(c1Oc1ccc(-c3ccccc3)cc1)OCCC2OP(=O)(N1CC1)N1CC1 (stereo not shown) [Example 134] | 1510 | 10 to 50 |  | 
12 | O=[N+]([O-])c1ccc2c(c1Oc1ccc(O)c(-c3ccc(F)cn3)c1)CCC2OP(=O)(N1CC1)N1CC1 (stereo not shown) [Example 334] | 824 |  | < 10 | 
13 | Cn1nccc1-c1cccc(Oc2c([N+](=O)[O-])ccc3c2CCC3OP(=O)(N2CC2)N2CC2)c1 (stereo not shown) [Example 366] | 636 |  | < 10 | 
14 | O=[N+]([O-])c1ccc2c(c1Oc1ccc(F)c(-c3cn[nH]c3)c1)CC[C@@H]2OP(=O)(N1CC1)N1CC1 [Example 370] | 967 | < 10 |  | 
15 | O=[N+]([O-])c1ccc2c(c1Oc1ccc(OC3CCCC3)cc1)CCC2OP(=O)(N1CC1)N1CC1 (stereo not shown) [Example 490] | 788 |  | < 10 | 
16 | CC(OP(=O)(N1CC1)N1CC1)c1cc2cc(Oc3cccc(C(=O)N(C)C)c3)c([N+](=O)[O-])cc2o1 (single isomer, unassigned) [Example 232] | 4110 | 10 to 50 |  | 
17 | O=[N+]([O-])c1ccc2c(c1Oc1cccc(-c3ncc(F)cn3)c1)CCC2OP(=O)(N1CC1)N1CC1 (stereo not shown) [Example 87] | 5890 |  | 10 to 50 | 
18 | O=[N+]([O-])c1ccc2c(c1Oc1ccc(F)c(S(=O)(=O)C3CC3)c1)CC[C@@H]2OP(=O)(N1CC1)N1CC1 [Example 513] | 682 | < 10 |  | 
19 | CSc1cc(Oc2c([N+](=O)[O-])ccc3c2CCC3OP(=O)(N2CC2)N2CC2)ccc1F (stereo not shown) [Example 507] | 952 |  | < 10 | 
20 | CNC(=O)c1cccc(Oc2cc3cc(C(C)OP(=O)(N4CC4)N4CC4)oc3cc2[N+](=O)[O-])c1 (stereo not shown) [Example 539] | 2730 | < 10 |  | 
21 | CC(OP(=O)(N1C[C@H]1C)N1C[C@H]1C)c1ccc([N+](=O)[O-])c(Oc2ccc(C(=O)N(C)C)cc2)c1 (stereo partly shown) [Example 215] | 3780 | < 10 |  | 
22 | O=C1c2cc(Oc3cc4c(cc3[N+](=O)[O-])CCC4OP(=O)(N3CC3)N3CC3)ccc2CN1C1COC1 (stereo not shown) [Example 162] | 969 | < 10 |  | 
23 | Cc1csc(-c2cc(Oc3c([N+](=O)[O-])ccc4c3CCC4OP(=O)(N3CC3)N3CC3)ccc2F)n1 (stereo not shown) [Example 340] | 4390 |  | 10 to 50 | 
24 | O=c1ccccn1-c1cccc(Oc2c([N+](=O)[O-])ccc3c2CCC3OP(=O)(N2CC2)N2CC2)c1 (stereo not shown) [Example 81] | 829 |  | < 10 | 
25 | Cn1cnc2cc(Oc3c([N+](=O)[O-])ccc4c3CC[C@H]4OP(=O)(N3CC3)N3CC3)ccc21 [Example 397] | 956 |  |  | < 10

Row | Structure (SMILES) | IC50 [1] [nM] | IC50 [2, 3] [nM] | IC50 ([2]; H460 cells) [nM] | IC50 [2, 4] [nM]
26 | O=[N+]([O-])c1ccc2c(c1Oc1ccc(O)c(-c3ccc(F)cn3)c1)CCC2OP(=O)(N1CC1)N1CC1 (stereo not shown) [Example 333] | 1310 |  | < 10 | 
27 | Cn1cc(-c2ccc(Oc3c([N+](=O)[O-])ccc4c3CCC4OP(=O)(N3CC3)N3CC3)cc2)ccc1=O (stereo not shown) [Example 60] | 1010 |  | ≥ 100 | 
28 | O=[N+]([O-])c1ccc2c(c1Oc1ccc(-c3cnn(C4CC4)c3)cc1)CCC2OP(=O)(N1CC1)N1CC1 (stereo not shown) [Example 78] | 1150 |  | ≥ 100 | 
29 | CC(OP(=O)(N1CC1)N1CC1)c1ccc([N+](=O)[O-])c(COc2ccncc2)c1 (stereo not shown) [Example 5] | > 10000 | ≥ 100 |  | 
30 | Cc1noc(-c2cccc(Oc3c([N+](=O)[O-])ccc4c3CCC4OP(=O)(N3CC3)N3CC3)c2)n1 (stereo not shown) [Example 119] | 644 | < 10 |  | 
31 | CC(OP(=O)(N1C[C@@H]1C)N1C[C@@H]1C)c1ccc([N+](=O)[O-])c(Oc2ccc(C(=O)N(C)C)cc2)c1 (stereo partly shown) [Example 213] | 1200 | < 10 |  | 
32 | O=[N+]([O-])c1ccc2c(c1Oc1ccc(-c3ccc(F)cn3)cc1)CC[C@H]2OP(=O)(N1CC1)N1CC1 [Example 278] | 1560 |  | < 10 | 
33 | O=C(c1cccc(Oc2c([N+](=O)[O-])ccc3c2CCC3OP(=O)(N2CC2)N2CC2)c1)N1CCC(F)(F)CC1 (stereo not shown) [Example 103] | 811 | < 10 |  | 
34 | O=C(NC1CCC1)c1ccc(Oc2c([N+](=O)[O-])ccc3c2CCC3OP(=O)(N2CC2)N2CC2)cc1 (stereo not shown) [Example 52] | 700 | 10 to 50 |  | 
35 | CN(C)C(=O)c1cccc(Oc2c([N+](=O)[O-])ccc3c2OCCC3OP(=O)(N2CC2)N2CC2)c1 (stereo not shown) [Example 129] | 982 |  | 10 to 50 | 
36 | CC(OP(=O)(N1CC1)N1CC1)c1cc2cc(Oc3cccc(-c4ccccn4)c3)c([N+](=O)[O-])cc2o1 (stereo not shown) [Example 543] | 2230 |  | < 10 | 
37 | CSc1ccc(Oc2c([N+](=O)[O-])ccc3c2CCC3OP(=O)(N2CC2)N2CC2)cc1 (racemic) [Example 461] | 547 |  | < 10 | 
38 | O=C1c2cc(Oc3c([N+](=O)[O-])ccc4c3OCCC4OP(=O)(N3CC3)N3CC3)ccc2CN1C1CC1 (single isomer, unassigned) [Example 139] | 839 |  | < 10 | 
39 | O=C(NC1CC1)c1ccc(Oc2c([N+](=O)[O-])ccc3c2CCC3OP(=O)(N2CC2)N2CC2)cc1 (stereo not shown) [Example 72] | 1390 |  | 50 to 100 | 
40 | O=[N+]([O-])c1ccc2c(c1Oc1ccc(F)c(OCC3CC3)c1)CC[C@@H]2OP(=O)(N1CC1)N1CC1 [Example 489] | 1660 | < 10 |  | 
41 | O=[N+]([O-])c1ccc2c(c1Oc1cccc(C(F)(F)F)c1)CCC2OP(=O)(N1CC1)N1CC1 (stereo not shown) [Example 308] | 357 |  | < 10 | 
42 | Cn1c(=O)oc2ccc(Oc3c([N+](=O)[O-])ccc4c3CCC4OP(=O)(N3CC3)N3CC3)cc21 (stereo not shown) [Example 378] | 440 | < 10 |  | 
43 | CC(OP(=O)(N1CC1)N1CC1)c1cc2cc(Oc3cccc(C(=O)N4CCC4)c3)c([N+](=O)[O-])cc2o1 (stereo not shown) [Example 549] | 5130 |  | 10 to 50 | 
44 | O=[N+]([O-])c1ccc2c(c1Oc1ccc(F)c(-c3ccc(F)cc3)c1)CC[C@@H]2OP(=O)(N1CC1)N1CC1 [Example 307] | 2360 |  |  | < 10
45 | O=C1CCCN1c1cc(Oc2c([N+](=O)[O-])ccc3c2CC[C@H]3OP(=O)(N2CC2)N2CC2)ccc1F [Example 428] | 1200 |  | < 10 | 
46 | O=[N+]([O-])c1ccc2c(c1Oc1cccc(-c3cccnc3)c1)CC[C@H]2OP(=O)(N1CC1)N1CC1 [Example 309] | 3070 | 10 to 50 |  | 
47 | Cc1cnn(-c2ccc(Oc3c([N+](=O)[O-])ccc4c3CCC4OP(=O)(N3CC3)N3CC3)cc2)c1 (stereo not shown) [Example 425] | 5270 |  | < 10 | 
48 | CC(OP(=O)(N1C[C@@H]1C)N1C[C@@H]1C)c1ccc([N+](=O)[O-])c(Oc2ccc(-c3ccccc3)cc2)c1 (stereo partly shown) [Example 219] | 2750 |  | < 10 | 
49 | O=[N+]([O-])c1ccc2c(c1Oc1ccc(-c3ccc(F)cc3)c(F)c1)CCC2OP(=O)(N1CC1)N1CC1 (single isomer, unassigned) [Example 27] | 1170 | < 10 |  | 
50 | O=C(NC1CCC1)c1ccc(Oc2cc3c(cc2[N+](=O)[O-])CCC3OP(=O)(N2CC2)N2CC2)cc1 (stereo not shown) [Example 191] | 661 |  | < 10 | 
